Reference: patent publication EP4745153A1, “GLP-1, GIP AND GCG RECEPTOR […] USE THEREOF” (Jiangsu Hengrui Pharmaceuticals Co., Ltd., priority 2023, dated 2025)
Read-outs that look alike come from different tables or passages of the source. Starred links: 1 amine or outer side, 2 acyl side, 3 side chain; linkers in the order of their positions; H or OH if unused. Non-standard residues stand in square brackets, D forms with d. Residues, ends and D or L forms follow the SMILES beside them. Groups on a side chain read outwards from the residue. No end group written: not given here. ξ: configuration not given here. *: point of attachment. C20 diacid = O=C(O)CCCCCCCCCCCCCCCCCCC(=O)*; γGlu = O=C(O)[C@H](CCC(=O)[*:2])N[*:1]; αMeK = C[C@](N)(CCCCN)C(=O)O; ξIva = CCC(C)(N)C(=O)O; AEEA = NCCOCCOCC(=O)O; Aib = CC(C)(N)C(=O)O

T1: human GIPR (Homo sapiens, UniProt P48546)
T1 construct: expressed in transfected cells; host or cells: CHO-K1 clonal cell line
T1 sequence (P48546 22-466): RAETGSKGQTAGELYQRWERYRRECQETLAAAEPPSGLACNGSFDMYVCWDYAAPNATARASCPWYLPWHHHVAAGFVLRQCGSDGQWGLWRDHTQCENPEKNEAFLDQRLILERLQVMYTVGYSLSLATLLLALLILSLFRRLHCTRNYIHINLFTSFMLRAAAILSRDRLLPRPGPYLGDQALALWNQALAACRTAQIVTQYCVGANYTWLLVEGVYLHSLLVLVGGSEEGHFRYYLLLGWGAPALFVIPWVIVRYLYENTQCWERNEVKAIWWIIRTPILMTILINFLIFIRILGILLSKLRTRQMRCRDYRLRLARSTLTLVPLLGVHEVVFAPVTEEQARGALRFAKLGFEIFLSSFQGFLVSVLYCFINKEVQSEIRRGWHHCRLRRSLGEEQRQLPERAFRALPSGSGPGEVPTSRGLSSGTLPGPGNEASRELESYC

T2: human glucose-dependent insulinotropic polypeptide receptor (human, UniProt P48546 22-466)
T2 sequence (looked up): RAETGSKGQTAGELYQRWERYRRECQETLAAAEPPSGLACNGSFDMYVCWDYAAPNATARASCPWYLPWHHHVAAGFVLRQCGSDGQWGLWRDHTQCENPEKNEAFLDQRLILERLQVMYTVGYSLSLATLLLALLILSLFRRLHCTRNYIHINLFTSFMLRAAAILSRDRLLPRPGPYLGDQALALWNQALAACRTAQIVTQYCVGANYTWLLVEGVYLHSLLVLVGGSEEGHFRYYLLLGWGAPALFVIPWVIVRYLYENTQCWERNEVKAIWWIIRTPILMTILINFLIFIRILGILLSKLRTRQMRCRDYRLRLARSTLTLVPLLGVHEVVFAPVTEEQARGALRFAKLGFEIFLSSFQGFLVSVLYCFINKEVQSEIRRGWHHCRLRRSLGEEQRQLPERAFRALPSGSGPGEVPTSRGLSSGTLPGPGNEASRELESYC


Tests used:
[1] = biological target: T1, human GIPR; test: cAMP HTRF agonist activity assay in CHO-K1 cells expressing GIPR; type: cell-based; for Activity against human GIPR (EC50 nM): 5% FBS, 0.1% Casein
Outline: (§1)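 cAMP accumulation measured by competitive HTRF after 30 min incubation of polypeptides with 5000 receptor-expressing CHO-K1 cells/well at 37°C. Percent of maximal response versus concentration fitted to a four-parameter logistic to give relative EC50.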

[2] = Pharmacokinetics in mice after single intravenous injection; set-up: species or system C57 mice; settings: mouse, in vivo, male C57 mice, single intravenous dose 200 nmol/kg, plasma
Outline: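 Plasma concentrations were measured by positive-mode ESI LC-MS/MRM, with verapamil as internal standard, at time points from 5 min to 72 h. Samples came from three male C57 mice per compound, aged 4-6 weeks, dosed once intravenously with 200 nmol/kg in 1×PBS; PK parameters were derived with PKSolver.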

[3] = biological target: T3, human GLP-1R (Homo sapiens, UniProt P43220); test: cAMP HTRF agonist activity assay in CHO-K1 cells expressing GLP-1R; type: cell-based; for Activity against human GLP-1R (EC50 nM): 5% FBS, 0.1% Casein
T3 construct: expressed in transfected cells; host or cells: CHO-K1 clonal cell line
T3 sequence (P43220 24-463): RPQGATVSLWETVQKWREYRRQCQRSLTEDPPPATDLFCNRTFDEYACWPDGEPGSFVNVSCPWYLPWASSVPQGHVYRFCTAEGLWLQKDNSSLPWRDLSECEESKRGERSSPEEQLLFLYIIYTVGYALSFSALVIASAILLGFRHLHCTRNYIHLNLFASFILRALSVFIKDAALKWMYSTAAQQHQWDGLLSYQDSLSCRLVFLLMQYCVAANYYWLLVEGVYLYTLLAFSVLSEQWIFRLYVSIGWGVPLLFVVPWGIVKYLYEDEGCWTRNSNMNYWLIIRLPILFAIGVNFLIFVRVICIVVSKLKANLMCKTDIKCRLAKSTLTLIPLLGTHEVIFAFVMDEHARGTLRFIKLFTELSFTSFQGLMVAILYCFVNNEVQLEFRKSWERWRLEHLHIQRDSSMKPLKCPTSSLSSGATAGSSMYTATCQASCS
Outline: as §1

[4] = biological target: T4, human GCGR (Homo sapiens, UniProt P47871); test: cAMP HTRF agonist activity assay in CHO-K1 cells expressing GCGR; type: cell-based; for Activity against human GCGR (EC50 nM): 5% FBS, 0.1% Casein
T4 construct: expressed in transfected cells; host or cells: CHO-K1 clonal cell line
T4 sequence (P47871 26-477): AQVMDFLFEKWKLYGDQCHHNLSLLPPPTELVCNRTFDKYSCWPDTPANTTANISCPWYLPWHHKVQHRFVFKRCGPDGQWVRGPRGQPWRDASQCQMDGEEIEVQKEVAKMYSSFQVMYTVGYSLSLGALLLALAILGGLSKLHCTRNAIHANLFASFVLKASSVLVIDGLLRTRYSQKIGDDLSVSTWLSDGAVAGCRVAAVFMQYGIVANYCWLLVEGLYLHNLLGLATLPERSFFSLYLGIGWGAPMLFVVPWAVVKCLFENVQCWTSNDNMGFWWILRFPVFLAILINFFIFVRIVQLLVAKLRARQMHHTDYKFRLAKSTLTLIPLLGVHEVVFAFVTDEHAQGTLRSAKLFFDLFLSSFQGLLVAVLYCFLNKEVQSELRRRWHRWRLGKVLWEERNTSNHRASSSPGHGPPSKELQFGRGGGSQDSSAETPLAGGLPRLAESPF
Protocol: Functional activity was determined in CHO-K1 clonal cell lines expressing GIPR, GLP-1R, and GCGR. […] Each recipient cell (5000 cells/well) was added to an SV 96-well plate (Cisbio, 66PL96025) and incubated with the prepared polypeptide at 37°Cfor 30 min. The resulting increase in intracellular cAMP was quantitatively measured using the cAMP-GS dynamic HTRF assay kit (Cisbio, 62AM4PEJ). Briefly, the intracellular cAMP levels were determined by adding cAMP-d2 conjugate in cell lysis buffer, followed by the antibody anti-cAMP-Eu cryptate (also in cell lysis buffer).
Using the maximum response percentage vs. the added polypeptide concentration, the relative EC50 values were derived through nonlinear regression analysis and fitted to a four-parameter logarithmic equation. For specific data, refer to Tables 7-1 to 7-8 below. […]

[5] = biological target: T2, human glucose-dependent insulinotropic …; test: cell-based or functional assay
[6] = read-out: Activity against human GIPR (EC50 nM)
[7] = read-out: Activity against human GLP-1R (EC50 nM)
[8] = read-out: Activity against human GCGR (EC50 nM)

Molecule | EC50 [1, 6] | EC50 [3, 7] | EC50 [4, 8] | Activity against human GIPR (EC50 nM) [5] | also measured
CC[C@H](C)[C@H](NC(=O)[C@](C)(CCCCN)NC(=O)[C@H](CO)NC(=O)[C@H](Cc1ccc(O)cc1)NC(=O)[C@H](CC(=O)O)NC(=O)[C@H](CO)NC(=O)[C@@H](NC(=O)[C@H](Cc1ccccc1)NC(=O)[C@@H](NC(=O)CNC(=O)[C@H](Cc1c[nH]cn1)NC(=O)C(C)(C)NC(=O)[C@@H](N)Cc1c[nH]cn1)[C@@H](C)O)[C@@H](C)O)C(=O)N[C@@H](CC(C)C)C(=O)N[C@@H](CCC(=O)O)C(=O)N[C@@H](CCCCNC(=O)COCCOCCNC(=O)COCCOCCNC(=O)CC[C@H](NC(=O)CCCCCCCCCCCCCCCCCCC(=O)O)C(=O)O)C(=O)N[C@@H](CCCCN)C(=O)N[C@@H](C)C(=O)N[C@@H](C)C(=O)N[C@@H](CCC(N)=O)C(=O)N[C@@H](CCC(=O)O)C(=O)N[C@@H](Cc1ccccc1)C(=O)N[C@H](C(=O)N[C@@H](CCC(=O)O)C(=O)N[C@@H](Cc1c[nH]c2ccccc12)C(=O)N[C@@H](CC(C)C)C(=O)N[C@@H](CC(C)C)C(=O)N[C@@H](C)C(=O)NCC(=O)NCC(=O)N1CCC[C@H]1C(=O)N[C@@H](CO)C(=O)N[C@@H](CO)C(=O)NCC(=O)N[C@@H](C)C(=O)N1CCC[C@H]1C(=O)N1CCC[C@H]1C(=O)N1CCC[C@H]1C(=O)N[C@@H](CO)C(N)=O)C(C)C [Compound 0119] (H-H[Aib]HGTFTSDYS[αMeK]ILEK([AEEA-AEEA-γGlu-C20 diacid])KAAQEFVEWLLAGGPSSGAPPPS-NH2) |  |  |  |  | EC50 [1]: 0.005 nM; AUC(0-inf) [2]: 55.9 µM·h; C0 [2]: 6.17 µM; clearance ([2]; read-out: CLp): 3.48 mL/h/kg; half-life ([2]; read-out: T1/2 (converted)): 13 h; EC50 [3]: 0.023 nM; EC50 [4]: 0.087 nM
CC[C@H](C)[C@H](NC(=O)[C@H](CO)NC(=O)[C@H](Cc1ccc(O)cc1)NC(=O)[C@H](CC(=O)O)NC(=O)[C@H](CO)NC(=O)[C@@H](NC(=O)[C@H](Cc1ccccc1)NC(=O)[C@@H](NC(=O)CNC(=O)[C@H](Cc1c[nH]cn1)NC(=O)C(C)(C)NC(=O)[C@@H](N)Cc1c[nH]cn1)[C@@H](C)O)[C@@H](C)O)C(=O)N[C@@H](CC(C)C)C(=O)N[C@@H](CC(C)C)C(=O)N[C@@H](CCC(=O)O)C(=O)N[C@@H](CCCCNC(=O)COCCOCCNC(=O)COCCOCCNC(=O)CC[C@H](NC(=O)CCCCCCCCCCCCCCCCCCC(=O)O)C(=O)O)C(=O)N[C@@H](CCCCN)C(=O)N[C@@H](C)C(=O)N[C@@H](C)C(=O)NC(C)(CC)C(=O)N[C@@H](CCC(=O)O)C(=O)N[C@@H](Cc1ccccc1)C(=O)N[C@H](C(=O)N[C@@H](CCC(=O)O)C(=O)N[C@@H](Cc1c[nH]c2ccccc12)C(=O)N[C@@H](CC(C)C)C(=O)N[C@@H](CC(C)C)C(=O)N[C@@H](C)C(=O)NCC(=O)NCC(=O)N1CCC[C@H]1C(=O)N[C@@H](CO)C(=O)N[C@@H](CO)C(=O)NCC(=O)N[C@@H](C)C(=O)N1CCC[C@H]1C(=O)N1CCC[C@H]1C(=O)N1CCC[C@H]1C(=O)N[C@@H](CO)C(N)=O)C(C)C (stereo partly drawn) [Compound 0135] | 0.001 nM | 0.013 nM | 0.019 nM |  | 
CC[C@H](C)[C@H](NC(=O)[C@H](CC(C)C)NC(=O)[C@H](Cc1c[nH]c2ccccc12)NC(=O)[C@H](CCC(=O)O)NC(=O)[C@@H](NC(=O)[C@H](Cc1ccccc1)NC(=O)[C@H](CCC(=O)O)NC(=O)C(C)(CC)NC(=O)[C@H](C)NC(=O)[C@H](C)NC(=O)[C@H](CCCCN)NC(=O)[C@H](CCCCNC(=O)COCCOCCNC(=O)COCCOCCNC(=O)CC[C@H](NC(=O)CCCCCCCCCCCCCCCCCCC(=O)O)C(=O)O)NC(=O)[C@H](CCC(=O)O)NC(=O)[C@H](CC(C)C)NC(=O)[C@H](CC(C)C)NC(=O)[C@](C)(CCCCN)NC(=O)[C@H](CO)NC(=O)[C@H](CC(C)C)NC(=O)[C@H](CC(=O)O)NC(=O)[C@H](CO)NC(=O)[C@@H](NC(=O)[C@H](Cc1ccccc1)NC(=O)[C@@H](NC(=O)CNC(=O)[C@H](Cc1c[nH]cn1)NC(=O)C(C)(C)NC(=O)[C@@H](N)Cc1c[nH]cn1)[C@@H](C)O)[C@@H](C)O)C(C)C)C(=O)N[C@@H](CCC(=O)O)C(=O)NCC(=O)NCC(=O)N1CCC[C@H]1C(=O)N[C@@H](CO)C(=O)N[C@@H](CO)C(=O)NCC(=O)N[C@@H](C)C(=O)N1CCC[C@H]1C(=O)N1CCC[C@H]1C(=O)N1CCC[C@H]1C(=O)N[C@@H](CO)C(N)=O (stereo partly drawn) [Compound 0133] (H-H[Aib]HGTFTSDLS[αMeK]LLEK([AEEA-AEEA-γGlu-C20 diacid])KAA[ξIva]EFVEWLIEGGPSSGAPPPS-NH2) | 0.002 nM | 0.016 nM | 0.03 nM |  | 
Y[Aib]QGTFTSDYS[αMeK]LLEK([AEEA-AEEA-γGlu-C20 diacid])KAAQEFVEWLLAGGPSSGAPPPS-NH2 (N-terminus assumed; SMILES CC(C)C[C@H](NC(=O)[C@H](CC(C)C)NC(=O)[C@H](Cc1c[nH]c2ccccc12)NC(=O)[C@H](CCC(=O)O)NC(=O)[C@@H](NC(=O)[C@H](Cc1ccccc1)NC(=O)[C@H](CCC(=O)O)NC(=O)[C@H](CCC(N)=O)NC(=O)[C@H](C)NC(=O)[C@H](C)NC(=O)[C@H](CCCCN)NC(=O)[C@H](CCCCNC(=O)COCCOCCNC(=O)COCCOCCNC(=O)CC[C@H](NC(=O)CCCCCCCCCCCCCCCCCCC(=O)O)C(=O)O)NC(=O)[C@H](CCC(=O)O)NC(=O)[C@H](CC(C)C)NC(=O)[C@H](CC(C)C)NC(=O)[C@](C)(CCCCN)NC(=O)[C@H](CO)NC(=O)[C@H](Cc1ccc(O)cc1)NC(=O)[C@H](CC(=O)O)NC(=O)[C@H](CO)NC(=O)[C@@H](NC(=O)[C@H](Cc1ccccc1)NC(=O)[C@@H](NC(=O)CNC(=O)[C@H](CCC(N)=O)NC(=O)C(C)(C)NC(=O)[C@@H](N)Cc1ccc(O)cc1)[C@@H](C)O)[C@@H](C)O)C(C)C)C(=O)N[C@@H](C)C(=O)NCC(=O)NCC(=O)N1CCC[C@H]1C(=O)N[C@@H](CO)C(=O)N[C@@H](CO)C(=O)NCC(=O)N[C@@H](C)C(=O)N1CCC[C@H]1C(=O)N1CCC[C@H]1C(=O)N1CCC[C@H]1C(=O)N[C@@H](CO)C(N)=O) [Compound No. 0114] |  |  |  | 0.01 nM | 
H[Aib]HGTFTSDYS[αMeK]LLEK([AEEA-AEEA-γGlu-C20 diacid])QAAQEFVEWLLAGGPSSGAPPPS-NH2 (N-terminus assumed; SMILES CC(C)C[C@H](NC(=O)[C@H](CC(C)C)NC(=O)[C@H](Cc1c[nH]c2ccccc12)NC(=O)[C@H](CCC(=O)O)NC(=O)[C@@H](NC(=O)[C@H](Cc1ccccc1)NC(=O)[C@H](CCC(=O)O)NC(=O)[C@H](CCC(N)=O)NC(=O)[C@H](C)NC(=O)[C@H](C)NC(=O)[C@H](CCC(N)=O)NC(=O)[C@H](CCCCNC(=O)COCCOCCNC(=O)COCCOCCNC(=O)CC[C@H](NC(=O)CCCCCCCCCCCCCCCCCCC(=O)O)C(=O)O)NC(=O)[C@H](CCC(=O)O)NC(=O)[C@H](CC(C)C)NC(=O)[C@H](CC(C)C)NC(=O)[C@](C)(CCCCN)NC(=O)[C@H](CO)NC(=O)[C@H](Cc1ccc(O)cc1)NC(=O)[C@H](CC(=O)O)NC(=O)[C@H](CO)NC(=O)[C@@H](NC(=O)[C@H](Cc1ccccc1)NC(=O)[C@@H](NC(=O)CNC(=O)[C@H](Cc1c[nH]cn1)NC(=O)C(C)(C)NC(=O)[C@@H](N)Cc1c[nH]cn1)[C@@H](C)O)[C@@H](C)O)C(C)C)C(=O)N[C@@H](C)C(=O)NCC(=O)NCC(=O)N1CCC[C@H]1C(=O)N[C@@H](CO)C(=O)N[C@@H](CO)C(=O)NCC(=O)N[C@@H](C)C(=O)N1CCC[C@H]1C(=O)N1CCC[C@H]1C(=O)N1CCC[C@H]1C(=O)N[C@@H](CO)C(N)=O) [Compound No. 0117] |  |  |  | 0.003 nM | 
